Experimental findings from US20120225909A1, “INDAZOLE ANALOG” (priority 2009, published 2012) are described below.

For data set [1], the target named is T1, human α1A-adrenergic receptor (Homo sapiens, UniProt P35348).
T1 sequence (P35348 1-466): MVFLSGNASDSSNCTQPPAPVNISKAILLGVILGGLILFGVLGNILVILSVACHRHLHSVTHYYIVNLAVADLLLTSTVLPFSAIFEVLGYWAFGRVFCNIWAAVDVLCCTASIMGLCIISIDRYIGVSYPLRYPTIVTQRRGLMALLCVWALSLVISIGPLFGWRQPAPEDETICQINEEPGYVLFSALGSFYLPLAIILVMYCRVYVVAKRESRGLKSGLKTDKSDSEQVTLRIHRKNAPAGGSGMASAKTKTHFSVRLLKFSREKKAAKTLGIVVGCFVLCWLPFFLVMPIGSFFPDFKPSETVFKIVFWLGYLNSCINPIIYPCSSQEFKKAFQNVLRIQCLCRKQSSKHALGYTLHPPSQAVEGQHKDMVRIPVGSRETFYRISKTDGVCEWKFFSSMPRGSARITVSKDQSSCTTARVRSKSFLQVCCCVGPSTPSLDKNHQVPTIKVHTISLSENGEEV
In words: Test Case 4-A: human α1A-adrenergic receptor agonist activity (HEK293, Ca flux, Fura-2). The conditions noted are these: for Emax: HEK293, read-out: α1A receptor I.A.; for α1A receptor I.A.: Test Case 4-A, maximum response of norepinephrine = 100%, Table 4. Also on record: expressed in transfected cells; host or cells: HEK293 cells, pcDNA3.1. Type of data set: cell-based. In short, it runs like this: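 Fura-2AM-loaded HEK293 cells transfected with human α1A were preincubated for 180 s. Compound (sample plate 10^−5 to 10^−12 M) was added after ~30 s of 340/380 nm excitation ratio reading (500 nm emission, 2-s intervals), followed by 270 s more reading. Ca flux is the peak height: maximum ratio after addition minus the pre-addition ratio.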

Data set [2] concerns the target T2, human β3-adrenergic receptor (Homo sapiens, UniProt P13945).
T2 construct: A full-length human β3 gene is obtained from a human genomic library (made by Clontech) using this as the probe; expressed in transfected cells; host or cells: CHO (Chinese hamster ovary) cells, pcDNA3
In words: Test Case 1-B: human β3-adrenergic receptor agonist activity (cAMP-Screen, 96-well). The conditions noted are these: for Emax: 0.5 h, read-out: β3 receptor I.A.; for EC50 / β3 receptor I.A.: Test Case 1-B; for EC50: CHO cells, cAMP; for β3 receptor I.A.: maximum response of isoproterenol = 100%. Type of data set: cell-based. The essentials:
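CHO cells stably transfected with full-length human β3 gene, serum-starved 15 min, then exposed to serially diluted compound in Ham's F-12 with 100 mmol/L HEPES and 1 mmol/L IBMX (diluent concentrations) for 30 min. Cells lysed 30 min at 37 °C; cAMP quantified by cAMP-Screen immunoassay.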

Data set [3] concerns the target T3, human β1-adrenergic receptor (Homo sapiens, UniProt P08588).
T3 construct: expressed in transfected cells; host or cells: CHO (Chinese hamster ovary) cells, pcDNA3
In words: Test Case 2-B: human β1-adrenergic receptor agonist activity. Type of data set: cell-based. The conditions noted are these: for Emax: read-out: β1 receptor I.A. The method, then: (§1) Measurement of Human β1-Adrenergic Receptor Agonist Activity
The human β1-adrenergic receptor agonist activity is measured by the same method as in Test Case 1-B using CHO (Chinese hamster ovary) cells transfected by a human β1 gene inserted in pcDNA3 (Invitrogen).

The target in data set [4] is T4, human β2-adrenergic receptor (Homo sapiens, UniProt P07550).
T4 construct: expressed in transfected cells; host or cells: CHO (Chinese hamster ovary) cells, pcDNA3
As to the kind of experiment: Test Case 3-B: human β2-adrenergic receptor agonist activity. Type of data set: cell-based. The conditions noted are these: for Emax: read-out: β2 receptor I.A. The method, then:
(§2) Measurement of Human β2-Adrenergic Receptor Agonist Activity
The human β2-adrenergic receptor agonist activity is measured by the same method as in Test Case 1-B using CHO (Chinese hamster ovary) cells transfected by a human β2 gene inserted in pcDNA3 (Invitrogen).

The test system of data set [5] is pentobarbital-anesthetized rats. In words: Test Case 9: effects on the blood pressure and heart rate in pentobarbital-anesthetized rats. Type of data set: in vivo, rat. The following applies: anesthetized male SD rats, 3 mg/kg intravenous over 30 seconds, maximum change, mean±standard deviation. As to the method:
Effects on the blood pressure and heart rate in pentobarbital-anesthetized rats
The blood pressure and heart rate of rats under pentobarbital anesthesia are measured, and the effects of rapid intravenous administration of the test compound on the blood pressure and heart rate can be studied. After anesthetizing male SD rats (Japan SLC) by intraperitoneal administration of 50 mg/kg of pentobarbital sodium (Tokyo Chemical Industry Co., Ltd.), 25 mg/kg of pentobarbital sodium is administered subcutaneously as maintenance anesthesia. The left femoral vein is exposed and stripped, and a SP10 polyethylene tube filled with saline (connected to a three-way stopcock via a ¼ venous needle) is inserted and left in place in the vein.
The inside of the left thigh is cut, and the femoral artery is exposed and stripped. A polyethylene tube filled with heparinized physiological saline solution (SP31, connected to a three-way stopcock via a Terumo injection needle 22G) is inserted and connected to a pressure transducer. The blood pressure is measured from the pressure transducer via a strain pressure amplifier (AP-641G, Nihon Kohden). The heart rate is measured with the pulse wave of the blood pressure as a trigger via a heart rate counter (AT-601G, Nihon Kohden). The blood pressure, mean blood pressure, and heart rate are output to a recorder and recorded. Furthermore, the mean blood pressure is recorded via the strain pressure amplifier (AP-641G) using the formula {[…]}.
Specifically, 3 mg/mL of test compound is administered rapidly at a volume of 1 mL/kg. The relative value (%) of the values at each point in time versus the mean blood pressure and heart rate before beginning administration are determined for each individual, and the mean±standard deviation of the relative value (%) at the time of the maximum change in each parameter is determined.

For data set [6], the target named is T3, human β1-adrenergic receptor. In words: Test Case 2-C: human β1-adrenergic receptor agonist activity (Cerep cellular functional GPCR, beta 1). Type of data set: cell-based. The following applies: concentration 10 μM, isoproterenol = 100%.
Excerpt: as §1

Data set [7] deals with T4, human β2-adrenergic receptor. As to the kind of experiment: Test Case 3-C: human β2-adrenergic receptor agonist activity (Cerep cellular functional GPCR, beta 2). Type of data set: cell-based. The conditions noted are these: concentration 10 μM, isoproterenol = 100%.
Excerpt: as §2

Data set [8] concerns the target T1, human α1A-adrenergic receptor. As to the kind of experiment: Test Case 4-B: human α1A-adrenergic receptor agonist activity (Cerep cellular functional GPCR, alpha 1A). The conditions noted are these: concentration 10 μM; for α1 receptor % of Control Agonist Response, Control; Epinephrine: epinephrine = 100%; for α1 receptor % of Control Agonist Response, Control; Norepinephrine: norepinephrine = 100%. Also on record: expressed in transfected cells. Type of data set: cell-based. The source says: Measurement of Human α1A-Adrenergic Receptor Agonist Activity
The human α1A-adrenergic receptor agonist activity] can be measured by […] Functional GPCR·Gs, alpha 1A (Ref. 722-36a) listed on p. 52 of the Cerep 2008 CATALOG IN VITRO PHARMACOLOGY & ADME-TOX.

T3 sequence (P08588 whole entry): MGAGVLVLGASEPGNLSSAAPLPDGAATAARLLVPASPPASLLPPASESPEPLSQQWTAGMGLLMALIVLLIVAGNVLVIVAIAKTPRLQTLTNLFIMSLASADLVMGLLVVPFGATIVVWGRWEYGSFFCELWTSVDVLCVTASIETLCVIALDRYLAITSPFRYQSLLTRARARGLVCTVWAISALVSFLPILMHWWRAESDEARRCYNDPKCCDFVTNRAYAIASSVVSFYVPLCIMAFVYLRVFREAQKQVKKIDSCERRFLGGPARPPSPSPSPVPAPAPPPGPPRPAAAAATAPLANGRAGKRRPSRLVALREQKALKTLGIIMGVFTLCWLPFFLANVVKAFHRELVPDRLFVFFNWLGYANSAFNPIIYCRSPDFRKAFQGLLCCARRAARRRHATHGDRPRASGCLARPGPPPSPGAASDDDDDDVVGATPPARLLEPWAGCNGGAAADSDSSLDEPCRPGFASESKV
T2 sequence (P13945 whole entry): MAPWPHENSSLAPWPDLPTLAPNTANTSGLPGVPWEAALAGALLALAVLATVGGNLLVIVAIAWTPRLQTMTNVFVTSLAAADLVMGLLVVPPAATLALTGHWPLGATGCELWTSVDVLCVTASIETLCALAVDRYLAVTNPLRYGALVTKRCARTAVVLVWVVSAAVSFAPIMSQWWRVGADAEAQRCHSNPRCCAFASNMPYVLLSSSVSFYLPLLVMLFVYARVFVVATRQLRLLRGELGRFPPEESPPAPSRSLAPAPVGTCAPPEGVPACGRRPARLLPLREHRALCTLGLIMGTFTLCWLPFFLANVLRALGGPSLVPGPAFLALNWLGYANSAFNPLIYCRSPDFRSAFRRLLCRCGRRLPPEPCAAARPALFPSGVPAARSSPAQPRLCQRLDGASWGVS

As to `COc1n[nH]c2cc(OCCNC[C@H](O)c3cccc(NS(=O)(=O)c4cccs4)c3)ccc12` [ex2, (R)—N-(3-(1-hydroxy-2-(2-(3-methoxyindazol-6-yloxy)ethylamino)ethyl)phenyl)thiophene-2-sulfonamide], the Emax in data set [1] amounted to 0%; in data set [2], 109%; in data set [3], 6%; in data set [4], 3%. Also, the EC50 in data set [2] came out at 3.5 nM. Besides, the “increase in MBP (%)” value in data set [5] (3 mg/kg) stood at 4.9 ± 0.9%.
Turning to `COc1n[nH]c2cc(OCCNC[C@H](O)c3cccc(NS(=O)(=O)c4ccsc4)c3)ccc12` [ex11, (R)-N-(3-(1-hydroxy-2-(2-(3-methoxyindazol-6-yloxy)ethylamino)ethyl)phenyl) thiophene-3-sulfonamide], the Emax was found to be 0% in data set [1], 115% in data set [2], 3% in data set [3] and 3% in data set [4]. Further, in data set [2], the EC50 worked out at 3.2 nM. Besides, in data set [5] (3 mg/kg), the “increase in MBP (%)” value was 6.1 ± 3.7%.
For the molecule `COc1n[nH]c2cc(OCCNC[C@H](O)c3cccc(NS(=O)(=O)c4cccnc4F)c3)ccc12` [ex24, (R)-2-fluoro-N-(3-(1-hydroxy-2-(2-(3-methoxyindazol-6-yloxy)ethylamino)ethyl)phenyl)pyridine-3-sulfonamide], the “β1 receptor % of Control Agonist Response” value (“β1 receptor %” for short) in data set [6] is listed as 6.1%. Besides, the “β2 receptor % of Control Agonist Response” value (from here on “β2 receptor %”) in data set [7] amounted to 1.2%. Moreover, the Emax in data set [2] amounted to 41%. For the same molecule, in data set [8], the “α1 receptor % of Control Agonist Response, Control; Epinephrine” value (from here on “α1 receptor % … Control; Epinephrine”) turned out to be 5.6% and the “α1 receptor % of Control Agonist Response, Control; Norepinephrine” value (shortened to “α1 receptor % … Norepinephrine”) was 4.8%.
For `COc1n[nH]c2cc(OCCNC[C@H](O)c3cccc(NS(=O)(=O)c4cccc(N)c4)c3)ccc12` [ex41, (R)-3-amino-N-(3-(1-hydroxy-2-(2-(3-methoxyindazol-6-yloxy)ethylamino)ethyl)phenyl) benzenesulfonamide], the “α1A receptor I.A.” value in data set [1] turned out to be 0%. Also, in data set [2], the EC50 is 0.21 nM and the “β3 receptor I.A.” value amounted to 76%. Further, the “β1 receptor I.A.” value in data set [3] (Test Case 2-B, maximum response of isoproterenol = 100%) was 12%. The “β2 receptor I.A.” value in data set [4] (Test Case 3-B, maximum response of isoproterenol = 100%) is on record as 5%. Also, the “increase in MBP (%)” value in data set [5] amounted to 5.7 ± 0.8%.
Consider `Cc1n[nH]c2cc(OCCNC[C@H](O)c3cccc(NS(=O)(=O)c4c(F)cccc4F)c3)ccc12` [ex71, (R)-2,6-difluoro-N-(3-(1-hydroxy-2-(2-(3-methylindazol-6-yloxy)ethylamino)ethyl)phenyl) benzenesulfonamide], for which the “β1 receptor %” value in data set [6] is reported as 32%. For the same molecule, in data set [1], the “α1A receptor I.A.” value was 2%. Besides, the “β2 receptor %” value in data set [7] is on record as 1.5%. For the same molecule, in data set [2], the EC50 is 152 nM and the “β3 receptor I.A.” value is 96%. Also, in data set [8], the “α1 receptor % … Control; Epinephrine” value turned out to be 4.3% and the “α1 receptor % … Norepinephrine” value came out at 3.7%.
As to `Cc1n[nH]c2cc(OCCNC[C@H](O)c3cccc(NS(=O)(=O)c4cc(F)ccc4F)c3)ccc12` [ex72, (R)-2, ? -difluoro-N-(3-(1-hydroxy-2-(2-(3-methylindazol-6-yloxy)ethylamino)ethyl)phenyl) benzenesulfonamide], the “β1 receptor %” value in data set [6] worked out at 19%. Moreover, the Emax in data set [1] stood at 1%. The “β2 receptor %” value in data set [7] amounted to 1.8%. In data set [2], the Emax was 92% and it took 8.3 nM to reach a half-maximal effect (EC50). In addition, in data set [8], the “α1 receptor % … Control; Epinephrine” value is 6.8% and the “α1 receptor % … Norepinephrine” value came to 5.9%.
`Cc1n[nH]c2cc(OCCNC[C@H](O)c3cccc(NS(=O)(=O)c4cn[nH]c4)c3)ccc12` [ex82, (R)-N-(3-(1-hydroxy-2-(2-(3-methylindazol-6-yloxy)ethylamino)ethyl)phenyl)py-razole-4-sulfonamide]: the Emax came to 13% in data set [1], 71% in data set [2], 7% in data set [3] and 2% in data set [4]. Further, the EC50 in data set [2] is 16 nM. The “increase in MBP (%)” value in data set [5] was 5.7 ± 0.8%.
`Cc1n[nH]c2cc(OCCNC[C@H](O)c3cccc(NS(=O)(=O)c4cccnc4F)c3)ccc12` [ex86]: the “β1 receptor %” value in data set [6] amounted to 8.8%. For the same molecule, in data set [7], the “β2 receptor %” value is given as −0.7%. Besides, in data set [2], the EC50 is 401 nM and the “β3 receptor I.A.” value was 80%. For the same molecule, in data set [8], the “α1 receptor % … Control; Epinephrine” value is −0.4% and the “α1 receptor % … Norepinephrine” value is −0.3%.
On to `O=S(=O)(Nc1cccc([C@@H](O)CNCCOc2ccc3c(OC(F)F)n[nH]c3c2)c1)c1ccccc1F` [ex107, (R)-N-(3-(2-(2-(3-(difluoromethoxy)-indazol-6-yloxy)ethylamino)-1-hydroxyethyl)phenyl)-2-fluorobenzene-sulfonamide], for which the “β1 receptor %” value in data set [6] amounted to 8.7%. The Emax in data set [1] worked out at 1%. For the same molecule, the “β2 receptor %” value in data set [7] was −0.6%. Also, in data set [2], the Emax amounted to 75% and the EC50 stood at 101 nM. Also, in data set [8], the “α1 receptor % … Control; Epinephrine” value amounted to 17% and the “α1 receptor % … Norepinephrine” value stood at 14%.
Turning to `O=S(=O)(Nc1cccc([C@@H](O)CNCCOc2ccc3c(Cl)n[nH]c3c2)c1)c1ccccc1F` [ex158, (R)-N-(3-(2-(2-(3-chloroindazol-6-yloxy)ethylamino)-1-hydroxyethyl)phenyl)-2-fluorobenzene-sulfonamide], the “β1 receptor %” value in data set [6] is on record as 17%. Besides, in data set [1], the Emax was found to be 0%. The “β2 receptor %” value in data set [7] stood at 1.6%. In data set [2], the Emax came out at 90% and the EC50 came out at 62 nM. For the same molecule, in data set [8], the “α1 receptor % … Control; Epinephrine” value stood at 7.8% and the “α1 receptor % … Norepinephrine” value is 6.7%.
In the case of “(R)-N-(3-(2-(2-(3- ethylindazol-6- yloxy)ethylamino)-1- hydroxyethyl)phenyl)- ? -methyli ? zole-4- sulfonamide [ex134]”, the “β1 receptor %” value in data set [6] worked out at 7.0%. In data set [7], the “β2 receptor %” value amounted to 2.0%. Besides, in data set [8], the “α1 receptor % … Control; Epinephrine” value was found to be 7.0% and the “α1 receptor % … Norepinephrine” value was 6.0%.
